Data set [1] has as its system A375res cells. Description: Proliferation assay in vemurafenib-resistant A375res melanoma cells. Particulars: Homo sapiens, 72 h, read-out: absolute IC50 values.
Description: (§1) A vemurafenib-resistant cell line is generated by chronic treatment of the human melanoma cell line A375 (ATCC) harboring the B-Raf V600E mutation with increasing concentrations PLX4720.
The subject of data set [2] is A375res cells.
Description: as §1

The results in this text go back to patent publication US9187474B2, “Raf inhibitor compounds” (Deciphera Pharmaceuticals, LLC, priority 2012, dated 2015).

As usually defined, the IC50 is the concentration that inhibits the measured activity by half.

Each structure is given as a SMILES string. Where a name gives a salt, the structure may show the parent alone.

As to `CNc1cc2nc(C)c(-c3cc(NC(=O)N[C@H]4CC[C@](C)(C#N)CC4)c(F)cc3C)cc2cn1` [Example 25, 1-(trans-4-cyano-4-methylcyclohexyl)-3-(2-fluoro-4-methyl-5-(2-methyl-7-(methylamino)-1,6-naphthyridin-3-yl)phenyl)urea], the IC50 in data set [1] was in the range of 0.009 to 0.504 µM. Moreover, in data set [2], the “IC50 shift A375 to A375res” value was 0.5-4.9 fold.
In the same order, the values of `CNc1cc2nc(C)c(-c3cc(NC(=O)N[C@H]4CC[C@@](C)(C#N)CC4)c(F)cc3C)cc2cn1` [Example 26, 1-(cis-4-cyano-4-methylcyclohexyl)-3-(2-fluoro-4-methyl-5-(2-methyl-7-(methylamino)-1,6-naphthyridin-3-yl)phenyl)urea] are 0.009 to 0.504 µM and 0.5-4.9 fold.
In the same order, the values of `CNc1cc2nc(C)c(-c3cc(NC(=O)NCCC4(C)CC4)c(F)cc3C)cc2cn1` [Example 27, 1-(2-fluoro-4-methyl-5-(2-methyl-7-(methylamino)-1,6-naphthyridin-3-yl)phenyl)-3-(2-(1-methylcyclopropyl)ethyl)urea hydrochloride] are 0.009 to 0.504 µM and 0.5-4.9 fold.
In the same order, the values of `CNc1cc2nc(C)c(-c3cc(NC(=O)NCCC4(OC)CC4)c(F)cc3F)cc2cn1` [Example 28, 1-(2,4-difluoro-5-(2-methyl-7-(methylamino)-1,6-naphthyridin-3-yl)phenyl)-3-(2-(1-methoxycyclopropyl)ethyl)urea] are 0.009 to 0.504 µM and 0.5-4.9 fold.
Turning to `CNc1cc2nc(C)c(-c3cc(NC(=O)NCC4CCCCC4)c(F)cc3C)cc2cn1` [Example 29, 1-(cyclohexylmethyl)-3-(2-fluoro-4-methyl-5-(2-methyl-7-(methylamino)-1,6-naphthyridin-3-yl)phenyl)urea hydrochloride], in data set [1], the IC50 was in the range of 0.009 to 0.504 µM. The “IC50 shift A375 to A375res” value in data set [2] was 0.5-4.9 fold.
The matching figures for `CCOC(C)(C)CCNC(=O)Nc1cc(-c2cc3cnc(NC)cc3nc2C)c(C)cc1F` [Example 30, 1-(3-ethoxy-3-methylbutyl)-3-(2-fluoro-4-methyl-5-(2-methyl-7-(methylamino)-1,6-naphthyridin-3-yl)phenyl)urea hydrochloride]: 0.009 to 0.504 µM and 0.5-4.9 fold.
In the same order, the values of `CNc1cc2nc(C)c(-c3cc(NC(=O)NCCC4(OC)CC4)c(F)cc3C)cc2cn1` [Example 31, 1-(2-fluoro-4-methyl-5-(2-methyl-7-(methylamino)-1,6-naphthyridin-3-yl)phenyl)-3-(2-(1-methoxycyclopropyl)ethyl)urea hydrochloride] are 0.009 to 0.504 µM and 0.5-4.9 fold.
In the same order, the values of `CNc1cc2ncc(-c3cc(NC(=O)NCCC(C)(C)OC)c(F)cc3C)cc2cn1` [Example 32, 1-(2-fluoro-4-methyl-5-(7-(methylamino)-1,6-naphthyridin-3-yl)phenyl)-3-(3-methoxy-3-methylbutyl)urea] are 0.009 to 0.504 µM and 0.5-4.9 fold.
Consider `CNc1cc2nc(C)c(-c3cc(NC(=O)NCCCC(C)(C)OC)c(F)cc3C)cc2cn1` [Example 33, 1-(2-fluoro-4-methyl-5-(2-methyl-7-(methylamino)-1,6-naphthyridin-3-yl)phenyl)-3-(4-methoxy-4-methylpentyl)urea hydrochloride], for which the IC50 in data set [1] is 0.009 to 0.504 µM. For the same compound, the “IC50 shift A375 to A375res” value in data set [2] was 0.5-4.9 fold.
The matching figures for `Cc1cc(F)c(NC(=O)NCCC(C)(C)C#N)cc1-c1cc2cnc(N)cc2nc1C` [Example 44, 1-(5-(7-amino-2-methyl-1,6-naphthyridin-3-yl)-2-fluoro-4-methylphenyl)-3-(3-cyano-3-methylbutyl)urea]: 0.009 to 0.504 µM and 0.5-4.9 fold.
